Source: the kinase profiling compilation of Christmann-Franck et al. (2016)

Experiments:
Experiment in all cases: KINOMEscan competition binding
Settings in all cases: compound 10.0 µM
WNK1 (human) = WNK1 (human) (UniProt Q9H4A3)
SGK1 (human) = SGK1 (human) (UniProt O00141)
RPS6KA3 KD2 (human) = RPS6KA3 KD2 (human) (UniProt P51812)
[1] = system: ALK (human), Q9UM73 [L1196M]
[2] = system: ALK (human), Q9UM73 [C1156Y]
NEK10 (human) = NEK10 (human) (UniProt Q6ZWH5)
Chain of NEK10 (human) (Q6ZWH5 whole entry, looked up): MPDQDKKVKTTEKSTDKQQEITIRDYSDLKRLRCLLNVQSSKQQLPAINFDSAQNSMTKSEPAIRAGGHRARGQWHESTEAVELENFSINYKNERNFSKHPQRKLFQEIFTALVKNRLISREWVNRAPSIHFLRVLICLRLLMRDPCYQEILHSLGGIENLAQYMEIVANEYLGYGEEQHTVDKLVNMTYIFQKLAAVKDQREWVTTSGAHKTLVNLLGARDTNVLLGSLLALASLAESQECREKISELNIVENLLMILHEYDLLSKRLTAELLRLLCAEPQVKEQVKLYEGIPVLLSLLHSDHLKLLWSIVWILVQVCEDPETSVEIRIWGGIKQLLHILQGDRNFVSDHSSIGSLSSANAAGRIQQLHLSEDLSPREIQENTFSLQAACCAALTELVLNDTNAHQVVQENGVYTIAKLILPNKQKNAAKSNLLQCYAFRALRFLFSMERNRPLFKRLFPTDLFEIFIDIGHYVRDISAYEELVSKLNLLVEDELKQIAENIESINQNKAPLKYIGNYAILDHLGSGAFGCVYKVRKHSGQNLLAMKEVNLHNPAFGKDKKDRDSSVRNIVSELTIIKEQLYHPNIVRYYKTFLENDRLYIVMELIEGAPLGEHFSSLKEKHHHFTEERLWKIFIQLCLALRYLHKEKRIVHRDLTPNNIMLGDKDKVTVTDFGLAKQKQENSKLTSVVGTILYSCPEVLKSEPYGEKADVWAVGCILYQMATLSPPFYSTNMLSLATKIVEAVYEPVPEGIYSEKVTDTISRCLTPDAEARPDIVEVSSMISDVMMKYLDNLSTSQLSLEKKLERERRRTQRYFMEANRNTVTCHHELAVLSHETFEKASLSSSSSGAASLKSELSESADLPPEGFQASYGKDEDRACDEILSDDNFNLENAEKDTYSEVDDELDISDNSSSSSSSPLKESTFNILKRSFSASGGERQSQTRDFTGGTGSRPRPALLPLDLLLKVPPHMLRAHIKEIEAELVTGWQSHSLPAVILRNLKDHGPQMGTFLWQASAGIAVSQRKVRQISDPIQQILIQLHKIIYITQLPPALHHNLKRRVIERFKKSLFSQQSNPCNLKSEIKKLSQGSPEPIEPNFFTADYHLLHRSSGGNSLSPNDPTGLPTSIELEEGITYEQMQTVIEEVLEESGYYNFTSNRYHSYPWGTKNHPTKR

Chain of SGK1 (human) (O00141 whole entry, looked up): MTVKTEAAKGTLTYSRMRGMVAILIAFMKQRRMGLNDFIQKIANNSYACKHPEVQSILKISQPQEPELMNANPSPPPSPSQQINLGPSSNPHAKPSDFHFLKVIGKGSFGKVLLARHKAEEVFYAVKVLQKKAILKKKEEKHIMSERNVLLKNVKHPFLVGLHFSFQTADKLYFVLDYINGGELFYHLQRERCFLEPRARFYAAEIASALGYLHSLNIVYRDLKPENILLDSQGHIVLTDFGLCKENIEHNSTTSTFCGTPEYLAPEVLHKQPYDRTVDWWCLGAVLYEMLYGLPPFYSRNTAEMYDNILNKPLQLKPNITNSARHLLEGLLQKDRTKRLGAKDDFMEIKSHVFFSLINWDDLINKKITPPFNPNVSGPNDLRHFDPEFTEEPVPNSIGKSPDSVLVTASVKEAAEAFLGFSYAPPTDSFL
Chain of WNK1 (human) (Q9H4A3 whole entry, looked up): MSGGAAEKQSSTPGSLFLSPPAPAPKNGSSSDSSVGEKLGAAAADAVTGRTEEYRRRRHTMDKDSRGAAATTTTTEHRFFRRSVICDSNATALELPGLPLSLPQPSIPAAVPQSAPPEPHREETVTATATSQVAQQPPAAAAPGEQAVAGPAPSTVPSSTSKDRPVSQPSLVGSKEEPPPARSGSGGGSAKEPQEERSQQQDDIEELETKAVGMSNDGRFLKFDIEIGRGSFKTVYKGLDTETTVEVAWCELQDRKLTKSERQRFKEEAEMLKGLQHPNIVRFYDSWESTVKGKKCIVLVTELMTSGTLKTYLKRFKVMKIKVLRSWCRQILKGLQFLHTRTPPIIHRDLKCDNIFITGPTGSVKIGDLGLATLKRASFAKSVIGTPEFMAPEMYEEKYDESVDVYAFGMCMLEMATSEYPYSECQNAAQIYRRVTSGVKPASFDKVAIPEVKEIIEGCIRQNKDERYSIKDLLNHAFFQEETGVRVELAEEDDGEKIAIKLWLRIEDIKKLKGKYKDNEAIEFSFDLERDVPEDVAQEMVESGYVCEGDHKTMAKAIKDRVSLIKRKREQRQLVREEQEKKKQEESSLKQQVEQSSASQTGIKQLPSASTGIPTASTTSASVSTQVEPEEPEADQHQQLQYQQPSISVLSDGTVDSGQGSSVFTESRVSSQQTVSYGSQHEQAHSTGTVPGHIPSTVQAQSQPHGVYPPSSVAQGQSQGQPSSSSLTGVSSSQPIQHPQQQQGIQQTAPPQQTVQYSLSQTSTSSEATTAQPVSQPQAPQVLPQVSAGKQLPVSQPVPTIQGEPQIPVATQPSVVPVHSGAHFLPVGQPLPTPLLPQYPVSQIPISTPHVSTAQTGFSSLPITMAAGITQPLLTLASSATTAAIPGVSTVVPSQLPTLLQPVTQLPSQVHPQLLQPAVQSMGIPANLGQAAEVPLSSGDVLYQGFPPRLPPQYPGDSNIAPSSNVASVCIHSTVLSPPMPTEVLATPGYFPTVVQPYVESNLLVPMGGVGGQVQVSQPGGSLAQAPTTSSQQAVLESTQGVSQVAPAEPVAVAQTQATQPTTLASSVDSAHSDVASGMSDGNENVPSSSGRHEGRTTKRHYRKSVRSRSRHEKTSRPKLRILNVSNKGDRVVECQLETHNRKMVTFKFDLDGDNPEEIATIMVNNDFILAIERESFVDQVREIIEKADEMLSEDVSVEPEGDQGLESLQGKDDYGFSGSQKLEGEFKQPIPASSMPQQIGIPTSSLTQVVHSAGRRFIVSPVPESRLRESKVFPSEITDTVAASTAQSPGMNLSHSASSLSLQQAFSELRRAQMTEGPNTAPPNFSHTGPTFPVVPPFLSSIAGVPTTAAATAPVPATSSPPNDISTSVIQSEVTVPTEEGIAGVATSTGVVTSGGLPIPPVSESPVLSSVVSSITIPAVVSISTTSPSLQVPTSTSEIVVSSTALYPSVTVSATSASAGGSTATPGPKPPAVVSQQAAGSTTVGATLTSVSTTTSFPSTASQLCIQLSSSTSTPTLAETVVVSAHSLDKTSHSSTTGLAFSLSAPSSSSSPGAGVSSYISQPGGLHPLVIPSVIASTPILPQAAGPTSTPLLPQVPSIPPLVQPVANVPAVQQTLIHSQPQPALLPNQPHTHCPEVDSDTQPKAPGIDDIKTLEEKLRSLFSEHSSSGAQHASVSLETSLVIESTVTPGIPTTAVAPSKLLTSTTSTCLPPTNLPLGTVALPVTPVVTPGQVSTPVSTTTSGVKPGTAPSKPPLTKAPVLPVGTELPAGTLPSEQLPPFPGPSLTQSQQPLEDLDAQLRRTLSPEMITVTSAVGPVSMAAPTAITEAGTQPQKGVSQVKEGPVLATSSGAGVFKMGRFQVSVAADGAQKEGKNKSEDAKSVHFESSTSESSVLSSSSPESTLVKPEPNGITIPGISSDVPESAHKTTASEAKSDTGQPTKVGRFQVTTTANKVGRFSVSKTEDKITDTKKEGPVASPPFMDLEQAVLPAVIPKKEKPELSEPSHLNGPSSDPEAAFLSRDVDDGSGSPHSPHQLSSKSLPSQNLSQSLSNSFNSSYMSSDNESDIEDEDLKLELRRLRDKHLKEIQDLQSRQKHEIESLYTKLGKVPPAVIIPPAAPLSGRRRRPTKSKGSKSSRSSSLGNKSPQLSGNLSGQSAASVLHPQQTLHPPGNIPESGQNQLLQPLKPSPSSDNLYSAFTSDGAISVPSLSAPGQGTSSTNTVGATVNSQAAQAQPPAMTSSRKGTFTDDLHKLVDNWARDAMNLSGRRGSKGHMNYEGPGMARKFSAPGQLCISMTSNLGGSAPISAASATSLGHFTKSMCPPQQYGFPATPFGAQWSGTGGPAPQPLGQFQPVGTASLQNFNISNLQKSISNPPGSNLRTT
Chain of RPS6KA3 KD2 (human) (P51812 whole entry, looked up): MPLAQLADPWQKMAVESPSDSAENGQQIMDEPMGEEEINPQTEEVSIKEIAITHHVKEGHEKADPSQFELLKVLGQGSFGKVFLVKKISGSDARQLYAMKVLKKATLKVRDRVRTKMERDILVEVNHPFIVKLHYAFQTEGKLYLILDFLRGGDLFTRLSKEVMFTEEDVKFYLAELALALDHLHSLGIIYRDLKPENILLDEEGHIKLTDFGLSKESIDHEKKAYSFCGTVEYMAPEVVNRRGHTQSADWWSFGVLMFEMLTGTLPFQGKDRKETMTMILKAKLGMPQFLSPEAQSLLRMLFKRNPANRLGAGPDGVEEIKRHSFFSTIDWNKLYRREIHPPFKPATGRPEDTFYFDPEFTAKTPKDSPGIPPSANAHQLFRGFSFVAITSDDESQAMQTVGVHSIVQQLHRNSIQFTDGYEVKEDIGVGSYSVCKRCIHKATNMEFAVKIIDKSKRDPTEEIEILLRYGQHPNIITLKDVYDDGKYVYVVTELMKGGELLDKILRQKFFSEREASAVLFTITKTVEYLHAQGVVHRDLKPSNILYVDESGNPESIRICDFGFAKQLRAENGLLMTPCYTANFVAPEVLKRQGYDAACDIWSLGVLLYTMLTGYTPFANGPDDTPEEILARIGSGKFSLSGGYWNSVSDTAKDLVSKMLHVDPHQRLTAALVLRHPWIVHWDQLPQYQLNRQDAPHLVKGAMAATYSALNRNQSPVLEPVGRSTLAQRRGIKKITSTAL

N#CCNC(=O)c1ccc(-c2ccnc(Nc3ccc(N4CCOCC4)cc3)n2)cc1
kinase still bound, per cent of control (WNK1 (human)): 75% | kinase still bound, per cent of control (SGK1 (human)): 2.8% | kinase still bound, per cent of control (RPS6KA3 KD2 (human)): 100%

O=C1NC(=O)/C(=C/c2ccc3nccc(-c4ccncc4)c3c2)S1
kinase still bound, per cent of control [1]: 45% | kinase still bound, per cent of control (WNK1 (human)): 57% | kinase still bound, per cent of control (SGK1 (human)): 43% | kinase still bound, per cent of control [2]: 42% | kinase still bound, per cent of control (RPS6KA3 KD2 (human)): 70% | kinase still bound, per cent of control (NEK10 (human)): 0%
